Where “and” joins values, the source holds several entries; their conditions need not be identical. Identical values can stand only once.
Tests used:
[1] = biological target: T1, 5-lipoxygenase (Rattus norvegicus, UniProt P12527); assay: PMN5LO assay: inhibition of LTB4 production in A23187-stimulated rat peritoneal PMN (RIA); type: cell-based; conditions: for IC50: estimated concentration required for 50% inhibition
T1 construct: endogenous in cells; host or cells: casein-elicited peritoneal polymorphonuclear leukocytes of male Sprague-Dawley rats
T1 sequence (P12527 1-673): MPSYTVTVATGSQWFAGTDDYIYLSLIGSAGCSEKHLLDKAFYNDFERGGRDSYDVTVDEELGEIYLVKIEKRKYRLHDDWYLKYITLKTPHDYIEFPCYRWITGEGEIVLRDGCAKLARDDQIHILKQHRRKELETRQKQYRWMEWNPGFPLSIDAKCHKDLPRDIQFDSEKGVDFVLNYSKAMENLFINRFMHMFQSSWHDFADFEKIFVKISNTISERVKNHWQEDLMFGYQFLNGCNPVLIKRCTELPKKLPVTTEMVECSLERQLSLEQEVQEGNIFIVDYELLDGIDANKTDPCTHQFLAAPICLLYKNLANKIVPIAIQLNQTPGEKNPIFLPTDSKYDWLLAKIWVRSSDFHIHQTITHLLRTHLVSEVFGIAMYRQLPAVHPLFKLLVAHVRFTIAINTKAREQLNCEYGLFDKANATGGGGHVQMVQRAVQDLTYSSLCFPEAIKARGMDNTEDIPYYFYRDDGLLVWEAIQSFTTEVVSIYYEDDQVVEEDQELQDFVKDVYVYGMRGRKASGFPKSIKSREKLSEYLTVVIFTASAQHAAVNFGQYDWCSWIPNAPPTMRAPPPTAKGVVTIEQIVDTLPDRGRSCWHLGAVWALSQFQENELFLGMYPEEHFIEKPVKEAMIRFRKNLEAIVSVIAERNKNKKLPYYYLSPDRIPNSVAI
Protocol: (§1) Two screening methods were employed for the purposes of evaluating the biological activities of the compounds of the present invention. The PMN5LO assay is a direct measure of the capacity to inhibit 5-lipoxygenase. The second protocol, RSVM-CO, is a method of determining inhibition of cyclooxygenase enzyme activity and as such it serves as a negative control.
Elicition of Rat Peritoneal polymorphonuclear leukoytes (PMN)
Male Sprague-Dawley rats (about 350 grams) were injected intraperitoneally the day before use with 8 ml of 12% sodium caseinate. The next day the animals were killed by CO2 asphyxiation and the peritoneal cavity lavaged twice with 20 ml of Hanks balanced salts containing 15 mM HEPES (pH 7.4), 1.4 mM Ca^++ and 0.7 mM Mg^++ (Hepes-Hanks). The suspensions were filtered through plastic mesh and centrifuged at […] for 5 minutes. The cells were resuspended in 50 ml Hepes-Hanks and recentrifuged. The PMN pellets were combined and suspended at 1.25×10^7 cells/ml.
The cell suspension was then diluted 1:10, preincubated 5 minutes at 37° C. and distributed in 200 μl aliquots in the wells of 96 well microtiter plates. The wells had previously received samples of the compounds of the present invention, controls, etc., in 25 μl of 0.001% fatty acidfree BSA in Hepes-Hanks. The plates were incubated 2 minutes at 37° C. and then the cells were stimulated to produce LTB4 by the addition of 25 μl of 100 μM calcium ionophore, designated A23187. After 4 minutes at 37° C. the plates were frozen in dry ice.
Radioimmunoassay (RIA) of LTB4
The frozen plates were thawed to 4° C. and 25 μl aliquots removed to V well plates. Antibody to LTB4 (50 μl) was added and, after 15 minutes at room temperature, 50 μl of ^3 H-LTB4 was added and the plates were stored overnight at 4° C. to allow equilibration. The next day the "free" 3H-LTB4 was removed by adsorption to dextran coated charcoal [90 μl per well of a 4% charcoal suspension with 0.25% Dextran T-70 in 10 mM potassium phosphate (pH 7.3) containing lmM EDTA and 0.25 mM thimerasol] during a 10 minute ice temperature incubation. The charcoal was removed by a 10 minute centrifugation at 200 sg. Aliquots of the supernatant were counted in a Packard 460, analyzed in a Masscomp computer and the data drawn up as % inhibition of LTB4 production.

[2] = biological target: T2, cyclooxygenase (Ovis aries, UniProt P05979); assay: RSVM-CO: Ram Seminal Vesicle Microsomal Cyclooxygenase assay; type: biochemical; conditions: for inhibition at 0.1 µg/mL: 0.1 μg/ml; for inhibition at 1 µg/mL: 1 μg/ml
T2 construct: Ram seminal vesicular glands were trimmed of fat; from tissue; host or cells: ram seminal vesicular glands, microsomal pellet (105K xg)
T2 sequence (P05979 25-600): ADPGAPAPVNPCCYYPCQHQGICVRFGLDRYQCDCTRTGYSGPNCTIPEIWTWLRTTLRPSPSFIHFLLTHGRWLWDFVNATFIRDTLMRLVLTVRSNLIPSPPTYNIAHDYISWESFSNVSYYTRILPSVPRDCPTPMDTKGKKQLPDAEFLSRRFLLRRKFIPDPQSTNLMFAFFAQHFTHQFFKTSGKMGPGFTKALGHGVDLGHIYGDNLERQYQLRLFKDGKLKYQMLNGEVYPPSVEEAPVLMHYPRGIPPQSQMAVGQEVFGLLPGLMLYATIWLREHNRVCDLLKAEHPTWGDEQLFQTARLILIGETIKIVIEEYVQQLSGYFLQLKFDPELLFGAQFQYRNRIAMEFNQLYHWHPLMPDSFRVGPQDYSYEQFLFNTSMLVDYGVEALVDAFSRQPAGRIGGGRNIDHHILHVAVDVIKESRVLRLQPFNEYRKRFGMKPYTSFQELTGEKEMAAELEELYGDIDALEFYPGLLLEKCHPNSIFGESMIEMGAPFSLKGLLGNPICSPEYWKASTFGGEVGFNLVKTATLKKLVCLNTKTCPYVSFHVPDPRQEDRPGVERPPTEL
Source text: as §1
B. Ram Seminal Vesicle Microsomal Cyclooxygenase (RSVM-CO) Assay Protocol
Ram seminal vesicular glands were trimmed of fat, 50 grams diced into 250 mls ice cold 0.1 M potassium phosphate (pH 7.6) buffer and homogenized using a Brinkman Polytron. The suspension was centrifuged 10 minutes at […] (4° C.) and the supernatant filtered through two cheesecloth layers. The filtrate was centrifuged 160 minutes at 105K xg, the supernatant thereof discarded, and the pellet surface rinsed with a small volume of buffer. The pellets were combined in a small volume, briefly homogenized with the Polytron and frozen in 0.5 ml aliquots at -80° C. The protein concentration was about 50 mg/ml.
The thawed enzyme was diluted 1:63 with 0.125 M Na EDTA (pH 8.0) containing 50 μg/ml BSA. A substrate-cofactor premix was prepared with 66 μM ^14 C-arachidonic acid (about 20K cpm/12.5 μl) in 500 μl 0.125 M Na EDTA (pH 8.0) plus 10 μl 50 mM hydroquinone and 10 μl 200 mM glutathione. To each sample well in the 96 well plate, agents dissolved in 0.5 μ DMSO were added, followed by 12.5 μl of the diluted enzyme. After a 4 minute preincubation at room temperature, 12.5 μl of the substrate-cofactor mix was added to start the reaction. The reaction was terminated after 20 minutes at room temperature by adding 25 μl of methanol containing 200 μg PGE2 and 400 μg AA per ml.
The entire reaction mixture was spotted onto a preadsorbent silica gel GF thin layer plate and, after air drying 45 minutes, developed 12 cm in ethyl acetate:glacial acetic acid (99:1).
The developed lanes were scanned for the distribution of radiolabel using a Bioscan Imaging Detector and the integrated peaks compared to standards and controls yielding % inhibition.

SMILES | PMN5LO % inhibition ([1]; 0.11 μg/ml) | inhibition at 0.11 µg/mL ([1]; 0.11 μg/ml) [%] | PMN5LO % inhibition ([1]; 0.33 μg/ml) [%] | inhibition at 0.33 µg/mL ([1]; 0.33 μg/ml) [%] | IC50 [1] | inhibition at 0.01 µg/mL ([2]; 0.01 μg/ml) [%] | inhibition at 0.1 µg/mL [2] [%] | inhibition at 1 µg/mL [2] [%] | PMN5LO % inhibition ([1]; 0.012 μg/ml) [%] | inhibition at 0.012 µg/mL ([1]; 0.012 μg/ml) [%] | PMN5LO % inhibition ([1]; 1 μg/ml) [%] | inhibition at 1 µg/mL ([1]; 1 μg/ml) [%] | inhibition at 0.037 µg/mL ([1]; 0.037 μg/ml) [%]
COCOc1cc(-c2ccccc2)sc1-c1ccccc1 [Compound 12, 2,5-Diphenyl-3-(methoxymethoxy)-thiophene] | 40% | 31 | 84 | 74 | 580 nM and 350 nM | 28 | 0 | 100 |  |  |  |  | 
COc1ccc(-c2sc(-c3ccccc3)cc2OC(C)=O)cc1 [Compound 14, 3-Acetoxy-2-(4'-methoxyphenyl)-5-phenylthiophene] | 91% and 46% |  | 85 | 100 | 80 nM |  | 0 |  | 12 | 24 | 80 | 100 | 
CC(=O)Oc1cscc1-c1ccccc1 [Compound 15, 3-Acetoxy-4-phenylthiophene] |  | 0 |  | 0 |  |  | 0 | 0 |  | 9 |  | 10 | 0
CC(=O)Oc1cc(-c2ccccc2)sc1-c1cccnc1 [Compound 16, 3-Acetoxy-2-(3'-pyridyl)-5-phenylthiophene] |  |  | 84 | 94 | 230 nM |  | 0 | 0 |  |  | 88 | 100 | 

Source: patent publication US4999436A, “Aryl-substituted thiophene 3-ols, derivatives and analogs useful as lipoxgenase inhibitors” (Merck & Co., Inc., priority 1989, dated 1991)
